Source: patent US12371454B2, “Cyclic peptide compound having Kras inhibitory action” (priority 2019, dated 2025)
Starred links: 1 amine or outer side, 2 acyl side, 3 side chain; linkers in the order of their positions; H or OH if unused. Positions of bridges follow the written chain, without caps; N, C: chain ends. Non-standard residues stand in square brackets, D forms with d. Residues, ends and D or L forms follow the SMILES beside them. *: point of attachment. NMeAbu(3,3-F2-piperidino) = CN[C@@H](CCN1CCCC(F)(F)C1)C(=O)O; hPhe(3-Cl-4-CF3) = N[C@@H](CCc1ccc(C(F)(F)F)c(Cl)c1)C(=O)O; NMePhe(4-CN) = CN[C@@H](Cc1ccc(C#N)cc1)C(=O)O; NMePhe(4-Cl) = CN[C@@H](Cc1ccc(Cl)cc1)C(=O)O; NMePhe(4-Me) = CN[C@@H](Cc1ccc(C)cc1)C(=O)O; NMedβ3hAla = C[C@H](CC(=O)[*:2])N(C)[*:1]; NMeGly(cPent) = CN[C@H](C(=O)O)C1CCCC1; Pro(4,4-F2) = O=C(O)[C@@H]1CC(F)(F)CN1; NMeCha = CN[C@@H](CC1CCCCC1)C(=O)O; Azetidine(3,3-F2) = FC1(F)CN(*)C1; NMeChg = CN[C@H](C(=O)O)C1CCCCC1; NMeF = CN[C@@H](Cc1ccccc1)C(=O)O; NMeI = CC[C@H](C)[C@H](NC)C(=O)O; NMeD = CN[C@@H](CC(=O)O)C(=O)O; NMeL = CN[C@@H](CC(C)C)C(=O)O; NMeV = CN[C@H](C(=O)O)C(C)C; d(β3hA) = C[C@@H](N)CC(=O)O; NMeS = CN[C@@H](CO)C(=O)O; Pip = O=C(O)[C@@H]1CCCCN1; NMeA = CN[C@@H](C)C(=O)O; NMeAib = CNC(C)(C)C(=O)O; Nle = CCCC[C@H](N)C(=O)O; Piperidide = C1CCN(*)CC1; dNMeA = CN[C@H](C)C(=O)O; Ac5c = NC1(C(=O)O)CCCC1; Aze = O=C(O)[C@@H]1CCN1; Ac4c = NC1(C(=O)O)CCC1; NPrGly = CCCNCC(=O)O; Sar = CNCC(=O)O; Propyl = CCC*

The compounds below were run against T1, Kras and SOS1 (biotin-tagged human Kras loaded with GDP, His-tagged human SOS1) (Homo sapiens, UniProt P01116, G12D) (assay: Protein-protein interaction inhibition between Kras and SOS1 (KrasGl2D-SOS PPI) using AlphaScreen). Details: AlphaScreen; biotin-tagged human Kras loaded with GDP, His-tagged human SOS1; read-out: KRAS G12D-SOS PPI IC50.
T1 construct: made in house; host or cells: E. coli (stated for Kras only)
T1 sequence (P01116 1-188 isoform P01116-2 G12D): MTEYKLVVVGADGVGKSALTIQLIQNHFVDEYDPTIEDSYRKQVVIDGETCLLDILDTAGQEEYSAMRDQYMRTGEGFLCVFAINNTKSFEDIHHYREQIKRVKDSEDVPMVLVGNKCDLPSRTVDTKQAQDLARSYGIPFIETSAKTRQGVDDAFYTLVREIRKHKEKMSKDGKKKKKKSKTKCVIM
Type: binding
Method in brief: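 Energy transfer from nickel-chelate donor beads bound to His-SOS1 to streptavidin acceptor beads bound to biotin-Kras, expressed in E. coli and loaded with GDP after purification, was monitored. Donors were excited at 680 nm; singlet oxygen reaching acceptors gave emission read at 520-620 nm.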

Compared with CC[C@H](C)[C@@H]1NC(=O)[C@H](C)N(C)C(=O)C[C@@H](C(=O)N2CCCCC2)N(C)C(=O)[C@H](C(C)C)N(C)C(=O)C2(CCCC2)NC(=O)[C@H](CCN2CCCC(F)(F)C2)N(C)C(=O)[C@H](CCc2ccc(C(F)(F)F)c(Cl)c2)NC(=O)CN(C)C(=O)[C@H](CC2CCCCC2)N(C)C(=O)[C@@H]2CCN2C(=O)[C@H](C)N(C)C1=O [Compound 682] ([NMeA]I[NMeA][Aze][NMeCha][Sar][hPhe(3-Cl-4-CF3)][NMeAbu(3,3-F2-piperidino)][Ac5c][NMeV][NMeD]-Piperidide; lactam N-11), CC[C@H](C)[C@@H]1NC(=O)[C@H](CC(C)C)N(C)C(=O)C[C@@H](C(=O)N2CCCCC2)N(C)C(=O)[C@H](C2CCCCC2)N(C)C(=O)C2(CCCC2)NC(=O)[C@@H]2CCCN2C(=O)[C@H](CCc2ccc(C(F)(F)F)c(Cl)c2)NC(=O)CN(C)C(=O)[C@H](COC)N(C)C(=O)CN(C)C(=O)CN(C)C1=O [Compound 623] ([NMeL]I[Sar][Sar][NMeS](Me)[Sar][hPhe(3-Cl-4-CF3)]P[Ac5c][NMeChg][NMeD]-Piperidide; lactam N-11) is 11-fold lower in IC50: 20 nM for the first, 1.8 nM for the second. The second is the more potent here.

Going from CCCC[C@@H]1NC(=O)[C@H](CCc2ccc(C(F)(F)F)c(Cl)c2)NC(=O)CN(C)C(=O)[C@H](Cc2ccc(Cl)cc2)N(C)C(=O)[C@@H]2CCN2C(=O)CN(C)C(=O)[C@H]([C@@H](C)CC)NC(=O)[C@@H]2CCCCN2C(=O)C[C@@H](C(=O)N2CCCCC2)N(C)C(=O)[C@H](CC(C)C)NC(=O)C(C)(C)N(C)C1=O [Compound 352] ([Pip]I[Sar][Aze][NMePhe(4-Cl)][Sar][hPhe(3-Cl-4-CF3)][Nle][NMeAib]L[NMeD]-Piperidide; lactam N-11) to CC[C@H](C)[C@@H]1NC(=O)[C@H](CC(C)C)N(C)C(=O)C[C@@H](C)NC(=O)[C@H](C2CCCC2)N(C)C(=O)C2(CCCC2)NC(=O)[C@@H]2CCCN2C(=O)[C@H](CCc2ccc(C(F)(F)F)c(Cl)c2)NC(=O)[C@H]2CCCN2C(=O)[C@H](Cc2ccc(C)cc2)N(C)C(=O)CN(C)C(=O)CN(C)C1=O [Compound 1487] (cyclo([Ac5c][NMeGly(cPent)][d(β3hA)][NMeL]I[Sar][Sar][NMePhe(4-Me)][dP][hPhe(3-Cl-4-CF3)]P)), the IC50 rises from 5.5 nM to 340 nM (62-fold).

CC[C@H](C)[C@@H]1NC(=O)[C@H](C)N(C)C(=O)C[C@@H](C)NC(=O)[C@H](C2CCCC2)N(C)C(=O)C2(CCCC2)NC(=O)[C@@H]2CCCN2C(=O)[C@H](CCc2ccc(C(F)(F)F)c(Cl)c2)NC(=O)[C@@H](C)N(C)C(=O)[C@H](Cc2ccccc2)N(C)C(=O)CN(C)C(=O)CN(C)C1=O [Compound 482] (cyclo([Ac5c][NMeGly(cPent)][d(β3hA)][NMeA]I[Sar][Sar][NMeF][dNMeA][hPhe(3-Cl-4-CF3)]P)) and CCCN1CC(=O)N(C)CC(=O)N(C)[C@@H](CC2CCCCC2)C(=O)N(C)CC(=O)N[C@@H](CCc2ccc(C(F)(F)F)c(Cl)c2)C(=O)N2CCC[C@H]2C(=O)NC2(CCCC2)C(=O)N(C)[C@@H](C(C)C)C(=O)N[C@H](C)CC(=O)N(C)[C@@H](CC(C)C)C(=O)N[C@@H]([C@@H](C)CC)C1=O [Compound 116] (cyclo([Ac5c][NMeV][d(β3hA)][NMeL]I[NPrGly][Sar][NMeCha][Sar][hPhe(3-Cl-4-CF3)]P)) are within 1.5-fold of each other in IC50: 170 nM for the first, 140 nM for the second.

First: CC[C@H](C)[C@@H]1NC(=O)[C@H](CC(C)C)N(C)C(=O)C[C@@H](C)N(C)C(=O)[C@H](C2CCCC2)N(C)C(=O)C2(CCC2)NC(=O)[C@@H]2CC(F)(F)CN2C(=O)[C@H](CCc2ccc(C(F)(F)F)c(Cl)c2)NC(=O)CN(C)C(=O)[C@H](Cc2ccc(C)cc2)N(C)C(=O)CN(C)C(=O)CN(C)C1=O [Compound 359] (cyclo([Ac4c][NMeGly(cPent)][NMedβ3hAla][NMeL]I[Sar][Sar][NMePhe(4-Me)][Sar][hPhe(3-Cl-4-CF3)][Pro(4,4-F2)]))
Second: CC[C@H](C)[C@@H]1NC(=O)[C@H](C)N(C)C(=O)C[C@@H](C(=O)N(C)C)N(C)C(=O)[C@H]([C@@H](C)CC)N(C)C(=O)C2(CCCC2)NC(=O)[C@H](Cc2ccc(C#N)cc2)N(C)C(=O)[C@H](CCc2ccc(C(F)(F)F)c(Cl)c2)NC(=O)CN(C)C(=O)[C@H](Cc2ccc(C)cc2)N(C)C(=O)[C@@H]2CCN2C(=O)[C@H](C)N(C)C1=O [Compound 1959] ([NMeA]I[NMeA][Aze][NMePhe(4-Me)][Sar][hPhe(3-Cl-4-CF3)][NMePhe(4-CN)][Ac5c][NMeI][NMeD]-NMe2; lactam N-11)
The IC50 of the first is 1.6-fold lower: 3.2 nM for the first, 5.2 nM for the second.

Work on CCCOC[C@@H]1NC(=O)[C@H](CC(=O)N2CC(F)(F)C2)N(C)C(=O)[C@H](CCc2ccc(C(F)(F)F)c(Cl)c2)NC(=O)CN(C)C(=O)[C@H](CC2CCCCC2)N(C)C(=O)[C@@H]2CCN2C(=O)[C@H](C)N(C)C(=O)[C@H]([C@@H](C)CC)NC(=O)[C@H](CC(C)C)N(C)C(=O)C[C@@H](C(=O)N(C)C)N(C)C(=O)[C@H](C2CCCC2)N(C)C1=O [Compound 41] ([NMeL]I[NMeA][Aze][NMeCha][Sar][hPhe(3-Cl-4-CF3)][NMeD](Azetidine(3,3-F2))S(Propyl)[NMeGly(cPent)][NMeD]-NMe2; lactam N-11) yielded an IC50 of 11 nM.
